From the NIST ThermoML archive (doi:10.1016/j.jct.2008.07.005)

Assay: xn = mol fraction of the nth substance listed
Conditions: 98.93 kPa, Liquid

CCCO [propan-1-ol] + O
mass density [kg/m3]
Conditions	283.15 K	288.15 K	293.15 K	298.15 K	303.15 K	308.15 K
x1 = 0.002	998.53	997.69	996.58	995.4	994.2	992.72
x1 = 0.005	996.91	996.06	994.95	993.76	992.54	991.05
x1 = 0.009	994.87	994	992.87	991.66	990.43	988.92
x1 = 0.01	994.38	993.49	992.36	991.14	989.92	988.4
x1 = 0.02	989.99	988.99	987.82	986.54	985.27	983.68
x1 = 0.03	986.29	985.17	983.91	982.56	981.2	979.57
x1 = 0.05	979.96	978.27	977.1	975.49	973.96	972.3
x1 = 0.065	975.01	972.88	971.86	969.94	968.38	966.41
x1 = 0.08	969.18	966.99	965.87	963.72	961.92	959.82
x1 = 0.1	960.42	958.48	957.26	954.91	952.93	950.64
x1 = 0.13	947.97	946	944.52	941.96	939.8	937.47
x1 = 0.15	940.47	938.48	936.78	934.12	931.81	929.47
x1 = 0.17	933.5	931.45	929.49	926.68	924.32	922.05
x1 = 0.1856	928.41	926.35	924.19	921.23	918.84	916.61
x1 = 0.2	923.98	921.89	919.56	916.46	914.04	911.83

OCC(O)CO [glycerol] + O
mass density [kg/m3]
Conditions	283.15 K	288.15 K	293.15 K	298.15 K	303.15 K	308.15 K
x1 = 0.002	1002.15	1001.53	1000.6	999.43	998.01	996.37
x1 = 0.005	1005.76	1005.11	1004.14	1002.93	1001.48	999.81
x1 = 0.01	1011.64	1010.93	1009.9	1008.63	1007.12	1005.42
x1 = 0.019	1022.85	1022.06	1020.89	1019.51	1017.89	1016.12
x1 = 0.03	1033.4	1032.52	1031.22	1029.73	1028.03	1026.18
x1 = 0.04	1043.36	1042.38	1040.97	1039.37	1037.58	1035.66
x1 = 0.05	1052.76	1051.69	1050.15	1048.46	1046.58	1044.59
x1 = 0.065	1065.9	1064.68	1062.99	1061.17	1059.16	1057.08
x1 = 0.08	1078.01	1076.64	1074.81	1072.85	1070.74	1068.56
x1 = 0.1	1092.7	1091.17	1089.16	1087.05	1084.79	1082.51
x1 = 0.125	1109.07	1107.35	1105.15	1102.86	1100.45	1098.03
x1 = 0.1526	1124.96	1123.05	1120.68	1118.23	1115.66	1113.11
x1 = 0.17	1133.96	1131.96	1129.5	1126.96	1124.3	1121.66
x1 = 0.18	1138.83	1136.77	1134.27	1131.68	1128.97	1126.28
x1 = 0.2	1147.94	1145.78	1143.22	1140.54	1137.73	1134.94

OCCCO [propan-1,3-diol] + O
mass density [kg/m3]
Conditions	283.15 K	288.15 K	293.15 K	298.15 K	303.15 K	308.15 K
x1 = 0.002	1000.12	999.49	998.61	997.63	996.05	994.51
x1 = 0.005	1000.99	1000.34	999.44	998.44	996.84	995.27
x1 = 0.01	1002.44	1001.75	1000.81	999.76	998.14	996.53
x1 = 0.019	1005.28	1004.53	1003.5	1002.37	1000.71	999
x1 = 0.03	1008.07	1007.24	1006.13	1004.91	1003.2	1001.41
x1 = 0.04	1010.8	1009.9	1008.71	1007.39	1005.63	1003.75
x1 = 0.05	1013.46	1012.49	1011.23	1009.82	1008	1006.03
x1 = 0.065	1017.32	1016.24	1014.85	1013.31	1011.4	1009.3
x1 = 0.08	1021.01	1019.75	1018.24	1016.57	1014.57	1012.35
x1 = 0.1	1025.57	1024.07	1022.38	1020.58	1018.45	1016.06
x1 = 0.125	1030.69	1028.92	1027.01	1025.02	1022.73	1020.19
x1 = 0.1526	1035.61	1033.62	1031.48	1029.18	1026.8	1024.09
x1 = 0.17	1038.35	1036.24	1033.94	1031.44	1029.04	1026.23
x1 = 0.18	1039.8	1037.62	1035.24	1032.61	1030.2	1027.36
x1 = 0.2	1042.35	1040.04	1037.56	1034.66	1032.25	1029.35

CC(O)CO (stereo not given) [1,2-propanediol] + O
mass density [kg/m3]
Conditions	283.15 K	288.15 K	293.15 K	298.15 K	303.15 K	308.15 K
x1 = 0.002	1000.28	999.66	998.73	997.56	996.13	994.48
x1 = 0.005	1001.15	1000.5	999.55	998.32	996.87	995.17
x1 = 0.01	1002.65	1001.93	1000.93	999.63	998.12	996.34
x1 = 0.019	1005.45	1004.9	1003.81	1002.37	1000.73	998.77
x1 = 0.03	1008.94	1007.94	1006.74	1005.17	1003.41	1001.32
x1 = 0.04	1012.38	1011.16	1009.69	1008.04	1006.07	1003.85
x1 = 0.05	1015.77	1014.38	1012.66	1010.8	1008.65	1006.42
x1 = 0.065	1020.67	1018.96	1016.94	1014.74	1012.36	1010.15
x1 = 0.08	1025.18	1023.18	1020.8	1018.36	1015.78	1013.54
x1 = 0.1	1030.57	1027.89	1025.18	1022.6	1019.88	1017.51
x1 = 0.125	1035.97	1032.58	1029.58	1027.01	1024.14	1021.52
x1 = 0.1526	1039.91	1036.53	1033.34	1030.86	1028.08	1024.73
x1 = 0.17	1041.79	1038.5	1035.11	1032.86	1030.11	1026.33
x1 = 0.18	1042.67	1039.47	1035.98	1033.9	1031.1	1027.06
x1 = 0.2	1043.92	1041	1037.19	1035.6	1032.73	1027.98
